The subject of experiment [1] is ventral midbrain organoids. In words: SAG dose curve for floor plate induction in ventral midbrain organoids (qPCR FOXA2). Type of experiment: cell-based, human. The following applies: day 4-11, with dual SMAD inhibition and Wnt activation; by day 20. The protocol: FIG. 2A-D: qPCR analysis of markers of ventral midbrain of the dose curving experiment to generate ventral midbrain organoids. Two separate dose curving experiments were performed, where first the correct dosage of sonic hedgehog activation was tested (FIG. 2A, floor plate marker FOXA2). Secondly, we performed qPCR to test for appropriate concentrations of posteriorization using Wnt activation. Dopaminergic neurons are born in the very ventral floor plate of the posterior midbrain, next to the midbrain-hindbrain boundary, thus the Forebrain and Midbrain marker OTX2 should still be expressed, whereas the hindbrain is OTX2 negative. We found a concentration of 0.8-1 μM sufficient to introduce midbrain (FIG. 2B), while the floor plate marker FOXA2 was still expressed (FIG. 2C). qPCR for the dopaminergic marker TH (Tyrosine hydroxylase, the rate-limiting enzyme for dopamine synthesis) confirmed this concentration of Wnt activation, with a sharp drop of TH expression starting at 1.2 μM CHIR (FIG. 2D).
All qPCR data are relative to the expression of TBP.
For ventral midbrain organoid preparation, cells were grown for 2-3 days after splitting in MG coated 6 well plates and dissociated using 600 μl Accutase. […] Cells were resuspended in 1 ml stem cell media +1:100 RI and counted. […]
Quantification was performed in excel by calculating ΔCt relative to TBP. […]

The test system of experiment [2] is striatal organoids. Put plainly: SAG dose-response curve in presence of IWP2 for LGE patterning of striatal organoids. Format: cell-based, human. The protocol: Panel C, D: Quantifications of GSX2^+ rosettes and PAX6^− rosettes, indicating LGE identity.
Panel E-F: Immunolabeling of CTIP2, an important early striatal marker, in two conditions with promising numbers of GSX2^+ rosettes, but low PAX6 expression.
For striatal organoid preparation, cells were grown for 2-3 days after splitting in MG coated 6 well plates and dissociated using 600 μl Accutase. 9000 cells were then transferred into 150 μl neural induction media containing 10 nM SAG and 2.5 μM IWP2 (SigmaAldrich, Cat. #10536) as well as 1:100 ROCK inhibitor. Media was exchanged on day 2 by replacing 100 μl media with 150 μl fresh NI media containing 10 nM SAG, 2.5 μM IWP2 and 1:100 ROCK inhibitor.
Striatal neurons are born majorly from the lateral ganglionic eminence (LGE), from where they migrate and form the developing striatum (Fjodorova, Noakes and Li, Neurogenesis, 2(1), 2015, Ornorati et al., Nat. Neurosci. 17, 1804-15, 2014). To pattern into LGE, we performed a dose curve experiment in a Wnt inhibitory context (IWP-2, which anteriorized and inhibits dorsal fate) similar to previous 2D differentiation approaches (Wu et al., Stem Cell Reports 11, 635-650, 2018). In brief, we activated sonic hedgehog signaling with the small molecule SAG at concentrations between 10 nM and 100 nM (FIG. 4B). We performed a SAG dose-response curve in the presence of the Wnt inhibitor IWP2 in an otherwise growth-factor free neural induction media.

[3] abbreviates: lowest concentration of SAG (10 nM), with IWP2, day 28 organoids.

The record followed here is US20260185056A1, “TRIPLE TISSUE CULTURE FUSION” (IMBA - INSTITUT FÜR MOLEKULARE BIOTECHNOLOGIE GMBH, priority 2022, published 2026).

“Also recorded” adds a separate entry of the source.

For the compound `CN[C@H]1CC[C@H](N(Cc2cccc(-c3ccncc3)c2)C(=O)c2sc3ccccc3c2Cl)CC1` [SAG, 3-Chloro-N-[trans-4-(methylamino)cyclo-hexyl]-N-[[3-(4-pyridinyl)phenyl]methyl]benzo[b]thiophene-2-carboxamide], in experiment [1], the “concentration sufficient to introduce maximal FOXA2 expression levels” value was 300 nM. In addition, in experiment [2] (25 nM SAG treated organoids compared with SAG10 treated organoids), the CTIP2 expression result is “much lower; also recorded: significantly lower”. In addition, in experiment [2] (setting [3]), the “rosettes expressing the LGE marker GSX2” value is “high level” and the “rosettes expressing the more dorsal marker PAX6” value is recorded as “low number”.
